Test results reported in patent US4045567A, “2-Alkyl-5-thiazole-carboxylic acid derivatives in hypolipemiant compositions” (Roussel Uclaf, priority 1969, dated 1977).
Where two headings read alike, the source gives them in different places.

Experiments:
[1] = Solubility (qualitative); assay type: physicochemical; details: for solubility in other solvents: organic solvents, sodium hydroxide
[2] = in vivo; details: mouse, mice, observed one week
Procedure: 1. determination of the acute toxicity:
The acute toxicity has been determined on batches of ten mice weighing from 18 to 22 gm. The products were administered in suspension in gum arabic solution in water, at increasing doses, either by oral route or by intraperitoneal route.
The animals are kept under observation for one week. The average lethal dose (LD50) is determined graphically by the method of Dragstedt and Lang.
The acute toxicity was determined on batches of ten mice weighing from 18 to 22 gm. Ethyl 2-n-propyl-thiazole-4-carboxylate was administered in suspension in gum arabic solution in water, at increasing doses by the intraperitoneal route. The animals were kept under observation for one week. The average lethal dose (LD50) was determined graphically by the method of Dragstedt and Lang.

[3] = Hypothermic activity in guinea pigs; assay type: in vivo; details: intraperitoneal, 100 mg/kg, 1, 2 and 3 hours after administration
Procedure: The hypothermic activity was determined on guinea pigs by administering the test compound, ethyl 2-n-propyl-thiazole-4-carboxylate, intraperitoneally at a dose of 100 mg/kg. The body temperature of the guinea pigs was determined 1/2 hour before the administration of the test compound and then 1, 2 and 3 hours after the said administration.

[4] = test system: triglycerides; experiment: Hypolipemiant activity (serum triglycerides) in the rat, technique of Jacobs et al; assay type: in vivo, male rats of the Wistar strain; details: 4 hours after ingestion; for Percentage of Reduction by Comparison With Controls (triglycerides): oral (oesophagial probe), 20 mg/kg
Procedure: 2. Determination of hypolipemiant activity:
The hypolipemiant activity has been determined on the rat according to the technique of Jacobs et al, Proc. Soc. Exp. Biol. Med., [1965], 119 (4) pp. 1117-1120.
Male rats of the Wistar strain weighing from 160 to 180 gm are not fed for 24 hours. The products employed in a 5% suspension in gum arabic solution in water, are administered through an oesophagial probe at doses of 20, 40 and 80 mg/kg. Four hours after ingestion of the product, some blood is withdrawn on which a determination of the triglycerides is carried out.
The principle of the determination is as follows:
The serum lipids are extracted with petroleum ether in the presence of ethanol. The lipidic solution is treated several times with 87% ethanol. A solution is thus obtained, the upper part of which contains the glycerides and the lower part, the phospholipids.
The weight of the glycerides is determined by determination of glycerol by periodic acid oxidation and determination of the formaldehyde with chromotropic acid.
A. determination of hypolipemiant activity:
The hypolipemiant activity was determined on the rat using the technique of Jacobs et al (Proc. Soc. Exp. Biol. Med., [1965], 119 [4], pp. 1117-1120). Male rats of the Wistar strain weighing from 160 to 180 gm were not fed for 24 hours. The product employed in a 5% suspension in gum arabic solution in water, was administered orally through an oesophagial probe at doses of 20 and 80 mg/kg. Four hours after ingestion of the product, some blood was withdrawn and a determination of the triglycerides therein was made.
The serum lipids are extracted with petroleum ether in the presence of ethanol and the lipidic solution was treated several times with 87% ethanol to obtain a solution, the upper part of which contained the glycerides and the lower part the phospholipids. The weight of the glycerides by determination of glycerol by periodic acid oxidation and determination of the formaldehyde with chromotropic acid is estimated.

[5] = test system: reddening of the ear; experiment: Peripheral vasodilatory effect (reddening of the ear) in guinea pigs; assay type: in vivo, guinea pigs with non-pigmented ears; set-up: key to Intensity (of reddening): intensity, which is recorded subjectively from 0 to +++; intensity, which is recorded subjectively from 0 to +++; intensity, which is recorded subjectively from 0 to +++; intensity, which is recorded subjectively from 0 to +++; details: for Duration (of reddening) / Intensity (of reddening) / Period of Induction: oral
Procedure: Peripheral vasodilatory effect: The peripheral vasodilatory effect has been investigated on the guinea pigs with non-pigmented ears by the appearance of the reddening of the ear. The animals, after being starved, are administered the products by oral route, at different dosages. The time of appearance of a reddening of the ears, the duration of this reddening and its intensity, which is recorded subjectively from 0 to +++ is determined. B. peripheral vasodilatory effect: The peripheral vasodilatory effect was investigated on guinea pigs with non-pigmented ears by the appearance of the reddening of the ear. The animals were starved and the product was administered intraperitoneally at a dose of 100 mg/kg. The time of appearance of a reddening of the ears, the duration of this reddening and its intensity being recorded subjectively from 0 to +++ is determined.

[6] = ip, intraperitoneal, read-out: average lethal dose (LD50), Intraperitoneal Route
[7] = oral, read-out: average lethal dose (LD50), Oral Route

CCCc1ncc(C(=O)OCc2ccccc2)s1 [benzyl 2-propyl-5-thiazolecarboxylate, Benzyl 2-propyl-5-thiazolecarboxylate]
solubility in other solvents [1]: soluble in ether and ethanol
solubility in water [1]: insoluble in water

CCCCc1ncc(C(=O)O)s1 [2-n-butyl-5-thiazolecarboxylic acid]
solubility in other solvents [1]: soluble in alcohol, chloroform and benzene
solubility in water [1]: insoluble in water

CCCc1ncc(C(=O)OCCc2ccccc2)s1 [Phenylethyl 2-propyl-5-thiazolecarboxylate]
solubility in other solvents [1]: soluble in ether and acetone
solubility in water [1]: insoluble in water

CCCc1ncc(C(=O)O)s1 [diisopropylammonium 2-propyl-5-thiazolecarboxylate]
solubility in other solvents [1]: soluble in water and in alcohol
solubility in water [1]: soluble in water

CCCc1nc(C(=O)OCC)cs1 [ethyl 2-n-propyl-thiazole-4-carboxylate, reference compound]
LD50 at 168 h [2, 6]: 1000 to 1500 mg/kg
hypothermic activity [3]: no hypothermic activity
hypolipemiant activity (action on the triglycerides) ([4]; oral, 20 and 80 mg/kg, comparison test): no action on the triglycerides
peripheral vasodilatory effect ([5]; intraperitoneal, 100 mg/kg, comparison test): no vasodilatory activity

CCCc1ncc(C(=O)OCC2COC(C)(C)O2)s1 (stereo not drawn) [2,3-Isopropylidenedioxy-propyl 2-propyl-5-thiazolecarboxylate]
solubility in other solvents [1]: soluble in ether, benzene and ethanol
solubility in water [1]: insoluble in water

CCCCCc1ncc(C(=O)O)s1 [2-n-pentyl-5-thiazolecarboxylic acid]
solubility in other solvents [1]: soluble in sodium hydroxide and alcohol, slightly soluble in ether
solubility in water [1]: insoluble in water

CCCCCCCCCCCc1ncc(C(=O)O)s1 [2-n-undecyl-5-thiazolecarboxylic acid]
solubility in other solvents [1]: soluble in alcohol and acetone
solubility in water [1]: insoluble in water

Cc1ncc(C(=O)O)s1 [2-methyl-5-thiazolecarboxylic acid]
Percentage of Reduction by Comparison With Controls (triglycerides) [4]: 40%
Duration (of reddening) ([5]; 10 mg/kg): 30 min
Intensity (of reddening) ([5]; 10 mg/kg): +++
Period of Induction ([5]; 10 mg/kg): 5 min
Duration (of reddening) ([5]; 20 mg/kg): 32 min
Intensity (of reddening) ([5]; 20 mg/kg): +++
Period of Induction ([5]; 20 mg/kg): 3 min
Duration (of reddening) ([5]; 50 mg/kg): 35 min
Intensity (of reddening) ([5]; 50 mg/kg): +++
Period of Induction ([5]; 50 mg/kg): 3 min

CCCCCCc1ncc(C(=O)O)s1 [2-n-hexyl-5-thiazolecarboxylic acid]
solubility in other solvents [1]: soluble in sodium hydroxide and alcohol
solubility in water [1]: insoluble in water

CCc1ncc(C(=O)O)s1 [2-ethyl-5-thiazolecarboxylic acid, 2-Ethyl-5-thiazolecarboxylic acid]
LD50 at 168 h [2, 6]: 525 mg/kg
LD50 at 168 h [2, 7]: > 2000 mg/kg
solubility in other solvents [1]: soluble in ethanol and sodium hydroxide
solubility in water [1]: insoluble in water
Percentage of Reduction by Comparison With Controls (triglycerides) [4]: 50%
Duration (of reddening) ([5]; 50 mg/kg): 50 min
Intensity (of reddening) ([5]; 50 mg/kg): +++
Period of Induction ([5]; 50 mg/kg): 6 to 8 min
Duration (of reddening) ([5]; 100 mg/kg): 60 min
Intensity (of reddening) ([5]; 100 mg/kg): +++
Period of Induction ([5]; 100 mg/kg): 6 to 7 min

CCCc1ncc(C(=O)O)s1 [2-propyl-5-thiazolecarboxylic acid]
LD50 at 168 h [2, 6]: 1680 mg/kg
LD50 at 168 h [2, 7]: > 2000 mg/kg
solubility in other solvents [1]: soluble in sodium hydroxide and alcohol, slightly soluble in ether
solubility in water [1]: insoluble in water
Percentage of Reduction by Comparison With Controls (triglycerides) [4]: > 50%
Duration (of reddening) ([5]; 50 mg/kg): 30 min
Intensity (of reddening) ([5]; 50 mg/kg): +
Period of Induction ([5]; 50 mg/kg): 13 min
Duration (of reddening) ([5]; 100 mg/kg): 32 min
Intensity (of reddening) ([5]; 100 mg/kg): ++
Period of Induction ([5]; 100 mg/kg): 10 min

CCCc1ncc(C(=O)OCCN(CC)CC)s1 [chlorohydrate of N,N-diethylaminoethyl 2-propyl-5-thiazolecarboxylate]
solubility in other solvents [1]: soluble in water, ethanol, propylene glycol, acetone, and chloroform, slightly soluble in ethyl acetate and benzene, and insoluble in ether
solubility in water [1]: soluble in water
